Assay results: publication PMC6009964, “Designing, synthesis and bioactivities of 4-[3-(4-hydroxyphenyl)-5-aryl-4,5-dihydro-pyrazol-1-yl]benzenesulfonamides” (Journal of Enzyme Inhibition and Medicinal Chemistry, 2016)
Like-named read-outs stand apart in the source and are kept apart here.

What was measured:
[1] = Cytotoxicity assay (MTT), normal oral cells (mean); settings: human, normal oral cells HGF, HPLF, HPC (mean of the three)
[2] = Cytotoxicity assay (MTT), HGF; settings: human, normal gingival fibroblasts (HGF)
[3] = Cytotoxicity assay (MTT), HPLF; settings: human, normal periodontal ligament fibroblasts (HPLF)
hCA XII = target: T1, hCA XII (Homo sapiens, UniProt O43570); test: Stopped-flow CO2 hydration carbonic anhydrase assay, hCA XII; type: biochemical; settings: for Ki: stopped-flow CO2 hydration, 15 min preincubation, pH 7.5; for hCA XII/hCA IX (selectivity ratio of Ki): times more selective towards hCA XII than hCA IX; for times more potent than compound 1 towards hCA XII: ratio of Ki versus compound 1
T1 construct: made in house

[4] = Cytotoxicity assay (MTT), HPC; settings: human, normal pulp cells (HPC)
hCA IX = target: T2, hCA IX (Homo sapiens, UniProt Q16790); test: Stopped-flow CO2 hydration carbonic anhydrase assay, hCA IX; type: biochemical; settings: for Ki: stopped-flow CO2 hydration, 15 min preincubation, pH 7.5; for times more potent than compound 1 towards hCA IX: ratio of Ki versus compound 1
T2 construct: made in house

[5] = system: Ca9–22 human oral squamous cell carcinoma cell line (gingiva); test: Cytotoxicity assay (MTT), Ca9-22; settings: for TS (C/A): CC50 HGF / CC50 Ca9–22 (same tissue origin, gingiva); for CC50: Homo sapiens, Ca9-22, 48 h, read-out: CC50 Ca9–22 (A); for SI (Ca9–22): average CC50 of nonmalignant cells / CC50 towards Ca9–22
[6] = system: HSC-4 human oral squamous cell carcinoma cell line (tongue); test: Cytotoxicity assay (MTT), HSC-4; settings: for CC50: Homo sapiens, HSC-4, 48 h, read-out: CC50 HSC-4; for SI (HSC-4): average CC50 of nonmalignant cells / CC50 towards HSC-4
[7] = system: Human oral squamous cell carcinoma cell lines (Ca9–22, HSC-2, HSC-3, HSC-4); test: Cytotoxicity assay (MTT), all four OSCC lines (mean, selectivity); settings: for CC50: Homo sapiens; for TS (D/B): mean CC50 against normal cells / mean CC50 against cancer cells; for Mean SI: mean SI over four OSCC cell lines
[8] = system: HSC-3 human oral squamous cell carcinoma cell line (tongue); test: Cytotoxicity assay (MTT), HSC-3; settings: for CC50: Homo sapiens, HSC-3, 48 h, read-out: CC50 HSC-3; for SI (HSC-3): average CC50 of nonmalignant cells / CC50 towards HSC-3
[9] = system: HSC-2 human oral squamous cell carcinoma cell line (tongue); test: Cytotoxicity assay (MTT), HSC-2; settings: for CC50: Homo sapiens, HSC-2, 48 h, read-out: CC50 HSC-2; for SI (HSC-2): average CC50 of nonmalignant cells / CC50 towards HSC-2
[10] = read-out: CC50 Mean (B), human oral squamous cell carcinoma cell lines

T1 sequence (O43570 25-354): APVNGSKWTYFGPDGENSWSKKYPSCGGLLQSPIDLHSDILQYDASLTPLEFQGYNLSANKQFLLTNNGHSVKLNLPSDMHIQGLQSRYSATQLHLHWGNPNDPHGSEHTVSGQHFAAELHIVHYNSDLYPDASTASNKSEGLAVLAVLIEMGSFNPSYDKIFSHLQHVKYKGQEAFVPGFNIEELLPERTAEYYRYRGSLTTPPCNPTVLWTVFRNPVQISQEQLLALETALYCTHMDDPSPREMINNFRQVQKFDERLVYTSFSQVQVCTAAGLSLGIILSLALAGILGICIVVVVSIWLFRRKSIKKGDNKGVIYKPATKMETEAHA

SMILES	CC50 at 48 h [1] [µM]	CC50 at 48 h [2] [µM]	CC50 at 48 h [3] [µM]	Ki (hCA XII) [µM]	hCA XII/hCA IX (selectivity ratio of Ki) (hCA XII)	CC50 at 48 h [4] [µM]	Ki (hCA IX) [µM]	TS (C/A) [5]	CC50 [5] [µM]	SI (Ca9–22) [5]	CC50 [6] [µM]	SI (HSC-4) [6]	CC50 [7, 10] [µM]	TS (D/B) [7]	Mean SI [7]	CC50 [8] [µM]	SI (HSC-3) [8]	CC50 [9] [µM]	SI (HSC-2) [9]	further results
NS(=O)(=O)c1ccc(N2N=C(c3ccc(O)cc3)CC2c2ccc(Br)cc2)cc1 (stereo not shown) [Compound 7, 4-[5-(4-Bromophenyl)-3-(4-hydroxyphenyl)-4,5-dihydro-pyrazol-1-yl]benzenesulfonamide]	78.6	52	34.3	0.0076	8.7	149	0.0662	0.9	55.7	1.4	61.7	1.3	68.2	1.2	1.2	70.3	1.1	85	0.9	–
NS(=O)(=O)c1ccc(N2N=C(c3ccc(O)cc3)CC2c2cccs2)cc1 (stereo not shown) [Compound 9, 4-[3-(4-Hydroxyphenyl)-5-(thiophen-2-yl)-4,5-dihydro-pyrazol-1-yl]benzenesulfonamide]	122	166	26.7	–	8.6	173	–	1.7	99.3	1.2	93.7	1.3	86.8	1.4	1.4	87.3	1.4	67	1.8	times more potent than compound 1 towards hCA XII (hCA XII): 11.1; times more potent than compound 1 towards hCA IX (hCA IX): 17.3
NS(=O)(=O)c1ccc(N2N=C(c3ccc(O)cc3)CC2c2ccccc2)cc1 (stereo not shown) [Compound 1, 4-[3-(4-Hydroxyphenyl)-5-phenyl-4,5-dihydro-pyrazol-1-yl]benzenesulfonamide]	118	133	59.7	0.0689	13.4	161	0.923	1.6	82	1.4	83.7	1.4	85.3	1.4	1.4	81	1.5	94.7	1.2	–
NS(=O)(=O)c1ccc(N2N=C(c3ccc(O)cc3)CC2c2ccc(Cl)cc2)cc1 (stereo not shown) [Compound 4, 4-[5-(4-Chlorophenyl)-3-(4-hydroxyphenyl)-4,5-dihydro-pyrazol-1-yl]benzenesulfonamide]	87.6	89	29.3	0.0388	2.5	144	0.0977	2.2	39.7	2.2	61	1.4	59.8	1.5	1.6	57	1.5	81.7	1.1	–
NS(=O)(=O)c1ccc(N2N=C(c3ccc(O)cc3)CC2c2ccc(F)cc2)cc1 (stereo not shown) [Compound 6, 4-[5-(4-Fluorophenyl)-3-(4-hydroxyphenyl)-4,5-dihydro-pyrazol-1-yl]benzenesulfonamide]	84.2	64.7	33	0.0086	9.8	155	0.0841	1.0	61.7	1.4	62.3	1.4	71.7	1.2	1.2	78	1.1	84.7	1.0	–
NS(=O)(=O)c1ccc(N2N=C(c3ccc(O)cc3)CC2c2ccc([N+](=O)[O-])cc2)cc1 (stereo not shown) [Compound 8, 4-[3-(4-Hydroxyphenyl)-5-(4-nitrophenyl)-4,5-dihydro-pyrazol-1-yl]benzenesulfonamide]	66.2	42	30	0.0075	8.5	127	0.0637	1.1	39.3	1.7	63.7	1.0	60.6	1.1	1.2	63.3	1.0	76	0.9	times more potent than compound 1 towards hCA XII (hCA XII): 9.2; times more potent than compound 1 towards hCA IX (hCA IX): 14.5
Cc1ccc(C2CC(c3ccc(O)cc3)=NN2c2ccc(S(N)(=O)=O)cc2)cc1 (stereo not shown) [Compound 2, 4-[3-(4-Hydroxyphenyl)-5-p-tolyl-4,5-dihydro-pyrazol-1-yl]benzenesulfonamide]	97.2	99.3	42.3	0.095	–	150	0.1	1.7	57	1.7	70.3	1.4	72.5	1.3	1.4	67.3	1.4	95.3	1.0	–
O=c1[nH]cc(F)c(=O)[nH]1 [Compound 5-FU, 5-Fluorouracil, reference compound]	> 1000	> 1000	> 1000	–	–	> 1000	–	>34.5	29	>34.5	13	>76.9	17.8	>56.2	>62.7	16	>62.5	13	>76.9	CC50 ([7]; read-out: CC50 range towards cancer cell lines): 13 to 29 µM
